Reference: publication PMC7571160, “Dibromopinocembrin and Dibromopinostrobin Are Potential Anti-Dengue Leads with Mild Animal Toxicity” (Molecules, 2020)
Where two headings read alike, the source gives them in different places.

Assays:
DENV2 = system: DENV2; parameters: method as in PMID 29360474; conditions: cited from earlier work
DENV 4 = system: DENV 4; parameters: method as in PMID 29360474; conditions: read-out: DENV4 EC50; cited from earlier work
[1] = system: dengue virus serotype 2 (DENV2), New Guinea C strain; test: DENV2 NGC effective concentration (EC50) test in LLC/MK2 cells, plaque titration; format: cell-based; conditions: for EC50: Dengue virus, DENV2 NGC in LLC/MK2 cells, MOI 0.1, 72 h, plaque titration; for SI NGC (CC50/EC50): LLC/MK2 CC50 / DENV2 NGC EC50
Procedure: (§1) LLC/MK2 were seeded at 5 × 10^4 cells per well of 24-well plate in growth medium and incubated overnight at 37 °C under 5% CO2. Cells were infected with DENV2 NGC at the multiplicity of infection (MOI) of 0.1 for 1 h with gentle rocking every 15 min. Cells were washed with PBS and incubated with MEM supplemented with 1% fetal bovine serum, 100 I.U./mL penicillin, and 100 μg/mL streptomycin. The compound was added to the virus-infected cells during and after infection. The cells were incubated for 72 h, unless otherwise indicated, at 37 °C under 5% CO2. Supernatants were collected and the viral infectivity was analyzed by 96-well plaque titration. Data were plotted and the EC50 values were calculated by nonlinear regression analysis. Each concentration was tested in duplicate and the results were reported as the means and standard deviation of three independent experiments. The selectivity index was calculated from the ratio of CC50 and EC50. Moreover, additional EC50s of TH002 and TH011 were also taken from Huh-7 (8 × 10^4 cells) and DENV2 16,681 (MOI of 1). Supernatants were collected after 72 h incubation for plaque titration EC50 values were calculated by nonlinear regression analysis. Data were presented by means and standard errors of three independent experiments.

DENV2 16681 = DENV2 16681 EC50 test in Huh-7 cells, plaque titration; format: cell-based, dengue virus serotype 2; conditions: for EC50: Dengue virus, DENV2 16681 in Huh-7 cells, MOI 1, 72 h, plaque titration; for SI (16681) (CC50/EC50): Huh-7 CC50 / DENV2 16681 EC50
Procedure: as §1

[2] = Cytotoxic concentration (CC50) test, MTS, LLC/MK2; format: cell-based, Macaca mulatta (rhesus monkey); conditions: rhesus monkey, LLC/MK2 cells
Procedure: (§2) LLC/MK2, THP-1, HEK-293, HepG2, or Huh-7 cells were seeded at 10^4 cells per well of 96-well plate and incubated overnight. Compounds were prepared to 6-10 different concentrations in filter-sterilized dimethylsulfoxide (Merck®, Darmstadt, Germany) before addition to the cells. The plates were incubated for 48 h before the MTS reagent (Promega®, Madison, WI, USA) was added to cells according to the manufacturer's protocol and incubated for 4 h before analysis by spectrophotometry at […]. Huh-7 cytotoxicity was assessed by the Alamar Blue assay (Invitrogen®, Waltham, MA, USA) and read by fluorometry at the excitation and emission wavelengths at 570 and 600 nm, respectively. Each compound was tested in triplicate. Cytotoxic concentrations (CC50) were calculated while using non-linear regression analysis and the results were reported as means and standard deviation of three independent experiments.

[3] = Cytotoxic concentration (CC50) test, MTS, THP-1; format: cell-based; conditions: human, THP-1 cells, THP-1, 48 h
Procedure: as §2

[4] = Cytotoxic concentration (CC50) test, MTS, HEK-293; format: cell-based; conditions: human, HEK-293 cells, HEK-293, 48 h
Procedure: as §2

[5] = Cytotoxic concentration (CC50) test, MTS, HepG2; format: cell-based; conditions: human, HepG2 cells, HepG2, 48 h
Procedure: as §2

[6] = Cytotoxic concentration (CC50) test, Alamar Blue, Huh-7; format: cell-based; conditions: human, Huh-7 cells; Huh-7, Alamar Blue
Procedure: as §2

C57BL/6 mice = test: Animal toxicity study, intravenous administration; format: in vivo, mouse; conditions: 10 mg/kg intravenous
Procedure: The animal care and use protocol identification number 016-2562 was approved by the Institutional Animal Care and Use Committee (CU-ACUP) of the Faculty of Medicine, Chulalongkorn University, Bangkok, Thailand, based on the National Institutes of Health, USA’s criteria for the use and treatment of laboratory animals. Male 8-week-old C57BL/6 mice purchased from the National Laboratory Animal Center, Nakhornpathom, Thailand were used in the experiments. TH011 and TH002 were diluted with 10% DMSO in normal saline solution. The preparations were intravenously administered at the concentration of 10 mg/kg through a tail vein (n = 5/group). The 10% DMSO in normal saline solution was used as vehicle control. Blood were collected through tail vein nicking at day one, three, and eight after administration and the serum samples were kept at −80 °C until analysis. Renal function (serum creatinine; Scr) and liver function (serum alanine transaminase; ALT) were measured by colorimetric assays while using QuantiChromTM (DICT-500, BioAssay, Hayward, CA, USA) and EnzyChrom (EALT-100, BioAssay), respectively.

[7] = system: DENV envelope-induced fusion; test: Fusion inhibition study in C6/36 cells; format: cell-based, dengue virus serotype 2; conditions: 10 µM, DENV2 NGC-infected C6/36 cells, 0.5 M MES pH 5.5
Procedure: C6/36 were seeded at 1 × 10^5 cells per well of 24-well plate MEM that was supplemented with 10% FBS and incubated overnight at 28 °C. Cells were infected with the virus at the multiplicity of infection (MOI) of 1 for 1 h at 28 °C. Compounds TH002 and TH011 were diluted in DMSO and added to the infected cells to the final concentration of 10 µM in 1% DMSO after DENV2 NGC (M.O.I. of 1) infection. Cells were incubated with MEM supplemented with 1% fetal bovine serum for 48 h before the addition of 0.5 M MES. Cells were incubated for an additional 24–48 h at 28 °C until the fused cells were visualized under light microscope.
Figure S5. Fusion inhibition assay; TH002 and TH011 (10 µM) were incubated with the DENV2-infected cells for
2 days before addition of 0.5 M MES, pH 5.5. The 4G2 antibody was an inhibitor of DENV envelope fusion and
was used as a control. Pos and Neg were abbreviated from positive (DENV) and negative (media-only) controls,
(1 picture or pasted object on this page, not shown here)

[8] = Solubility observations in culture media and vehicles; format: physicochemical; conditions: for Dissolution in culture media, DMSO and NSS: data not shown; for Concentration above which compound was only partially dissolved: cell culture test conditions
DENV NS3 protease = conditions: cited from earlier work
[9] = system: dengue virus serotype 2 (DENV2), New Guinea C strain; parameters: method as in Srivarangkul et al. 2018 [11]; conditions: ref Srivarangkul et al. 2018 [11]; read-out: DENV2 NGC EC50; cited from earlier work
LLC/MK2 cells = system: LLC/MK2 cells; parameters: method as in Srivarangkul et al. 2018 [11]; conditions: ref Srivarangkul et al. 2018 [11]; cited from earlier work
Zika viruses = system: Zika viruses; parameters: method as in PMID 30959074; conditions: read-out: Zika virus EC50; cited from earlier work
DENV NS5 polymerase = system: DENV NS5 polymerase; parameters: method as in PMID 22050318; conditions: cited from earlier work
[10] = parameters: method as in PMID 25744566; conditions: rat, intravenous, 10 mg, single dose; cited from earlier work
[11] = parameters: method as in PMID 25744566; conditions: human, 20 mg, iv drip; cited from earlier work

COc1cc2c(c(O)c1C)C(=O)CC(c1ccccc1)O2 (stereo not drawn) [6-methylpinostrobin]
EC50 (DENV2): 16 ± 5.38 µM | EC50 (DENV 4): 11.7 ± 6.04 µM

COc1c(Br)c(O)c2c(c1Br)OC(c1ccccc1)CC2=O (stereo not drawn) [TH002, 6,8-dibromo-5-hydroxy-7-methoxyflavanone]
EC50 [1]: 5.86 ± 0.507 µM | SI NGC (CC50/EC50) [1]: >17.0745, | EC50 (DENV2 16681): 3.19 µM | SI (16681) (CC50/EC50) (DENV2 16681): (23.9342) | CC50 at 48 h [2]: > 100 µM | CC50 at 48 h [3]: 51.8 ± 2.3 µM | CC50 at 48 h [4]: > 100 µM | CC50 at 48 h [5]: 49.9 ± 2.7 µM | CC50 at 48 h [6]: 76.4 ± 7.2 µM | ALT levels (hepatotoxicity) (C57BL/6 mice; day 1 and 3): mildly elevated | ALT levels (hepatotoxicity) (C57BL/6 mice; day 8): decreased to normal | Inhibition of DENV envelope-induced fusion under acidic pH [7]: no fusion inhibition observed | Dissolution in culture media, DMSO and NSS [8]: completely dissolved

O=C1CC(c2ccccc2)Oc2c(Br)c(O)c(Br)c(O)c21 (stereo not drawn) [TH011, 6,8-dibromo-5,7-dihydroxyflavanone]
EC50 [1]: 2.06 ± 0.754 µM | SI NGC (CC50/EC50) [1]: 32.5621 | EC50 (DENV2 16681): 4.59 µM | SI (16681) (CC50/EC50) (DENV2 16681): (10.5201) | CC50 at 48 h [2]: 67.2 ± 0.973 µM | CC50 at 48 h [3]: > 100 µM | CC50 at 48 h [4]: 93.2 ± 5.99 µM | CC50 at 48 h [5]: > 100 µM | CC50 at 48 h [6]: 48.3 ± 4.11 µM | ALT levels (hepatotoxicity) (C57BL/6 mice; day 1 and 3): not obviously seen | Inhibition of DENV envelope-induced fusion under acidic pH [7]: no fusion inhibition observed | Dissolution in culture media, DMSO and NSS [8]: completely dissolved

COc1c(I)c(O)c2c(c1I)OC(c1ccccc1)CC2=O (stereo not drawn) [TH012, 6,8-diiodo-5-hydroxy-7-methoxyflavanone]
EC50 [1]: 2.8 ± 1.55 µM | SI NGC (CC50/EC50) [1]: >3.5714 | CC50 at 48 h [2]: > 10 µM | Concentration above which compound was only partially dissolved [8]: exceeded 10 µM

COc1cc2c(c(O)c1I)C(=O)CC(c1ccccc1)O2 (stereo not drawn) [TH018, 6-iodo-5-hydroxy-7-methoxyflavanone]
EC50 [1]: 4.1 ± 1.84 µM | SI NGC (CC50/EC50) [1]: >6.0945 | CC50 at 48 h [2]: > 25 µM | Concentration above which compound was only partially dissolved [8]: > 25 µM

COc1cc(O)c2c(c1)O[C@H](c1ccccc1)CC2=O [TH019, pinostrobin]
EC50 [1]: 10.8 ± 1.63 µM | SI NGC (CC50/EC50) [1]: 7.3242 | CC50 at 48 h [2]: 78.8 ± 2.92 µM | DENV NS3 protease IC50 (DENV NS3 protease): 90.48 µg/mL | Ki (DENV NS3 protease): 345 ± 70 µM

O=C1CC(c2ccccc2)Oc2cc(O)cc(O)c21 (stereo not drawn) [TH022, 5,7-dihydroxyflavanone]
SI NGC (CC50/EC50) [1]: >6.47 | EC50 [9]: 15.5 µM | CC50 (LLC/MK2 cells): > 100 µM | EC50 (Zika viruses): 17.4 µM | DENV NS3 protease IC50 (DENV NS3 protease): 286.90 µg/mL | Inhibition of DENV NS5 polymerase activity (DENV NS5 polymerase): not inhibit | half-life [10]: 12 to 14 min | half-life [11]: 47 min
